Reference: US8859580B2 (Boehringer Ingelheim International GmbH, priority 2007, dated 2014)

The compounds below were run against T1, 11β-HSD1 (Homo sapiens, UniProt P28845) (assay: In vitro inhibition of 11β-HSD1, HTRF detection of cortisol generated from cortisone by human liver microsomes). Details: 11β-HSD IC50 (nM), 1 hour at 37° C., pH 6.0, NADPH 200 μM, cortisone 80 nM, inhibition relative to carbenoxolone signal.
T1 construct: detecting cortisol generated from cortisterone by human liver microsomes; from tissue; host or cells: human liver microsomes
T1 sequence (P28845 whole entry): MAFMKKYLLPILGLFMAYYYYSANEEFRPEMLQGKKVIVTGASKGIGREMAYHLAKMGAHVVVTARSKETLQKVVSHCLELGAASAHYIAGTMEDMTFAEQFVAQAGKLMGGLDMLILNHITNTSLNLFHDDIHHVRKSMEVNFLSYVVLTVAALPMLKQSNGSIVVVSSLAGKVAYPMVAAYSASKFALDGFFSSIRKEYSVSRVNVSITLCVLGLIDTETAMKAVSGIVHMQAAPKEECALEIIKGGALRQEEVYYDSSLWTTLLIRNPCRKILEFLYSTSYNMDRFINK
Format: biochemical
In short: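 Cortisol formed from cortisone by human liver microsomes quantified by competitive HTRF immunoassay (XL665-cortisol, Eu-cryptate anti-cortisol antibody), 2 h detection, Em665/Em615 ratio converted via cortisol calibration curve. Percent inhibition relative to carbenoxolone signal; IC50 from curves.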
`CC1(C)[C@H]2Cc3c(O)cccc3[C@]1(C)CCN2C(=O)c1ccc(CN2CCC(O)C2)cc1` (stereo partly drawn) [Example 188, [4-(3-Hydroxy-pyrrolidin-1-ylmethyl)-phenyl]-[(2R,6S)-10-hydroxy-6,11,11-trimethyl-1,2,5,6-tetrahydro-4H-2,6-methano-benzo[d]azocin-3-yl]-methanone] gave an IC50 of 2920 nM. `COc1ccc2c(c1)[C@]1(C)CCN(C(=O)c3occc3C)[C@H](C2)[C@@H]1C` [Example 111, [(2R,6R,11R)-8-Methoxy-6,11-dimethyl-1,2,5,6-tetrahydro-4H-2,6-methano-benzo[d]azocin-3-yl]-(3-methyl-furan-2-yl)-methanone] showed an IC50 of 1600 nM. With `CC1(C)[C@H]2Cc3c(O)cccc3[C@]1(C)CCN2C(=O)c1ccc(CN2CC(O)C2)cc1` [Example 187, [4-(3-Hydroxy-azetidin-1-ylmethyl)-phenyl]-[(2R,6S)-10-hydroxy-6,11,11-trimethyl-1,2,5,6-tetrahydro-4H-2,6-methano-benzo[d]azocin-3-yl]-methanone] the IC50 was 1960 nM. With `CC[C@]12CCN(C(=O)c3ccc4nc[nH]c4c3)[C@H](Cc3ccc(O)cc31)[C@@H]2C` (racemic) [Example 87, (3H-Benzoimidazol-5-yl)-(6-ethyl-8-hydroxy-11-methyl-1,2,5,6-tetrahydro-4H-2,6-methano-benzo[d]azocin-3-yl)-methanone] the IC50 was 622 nM. Work on `CC1(C)[C@H]2Cc3c(ccc4[nH]cnc34)[C@]1(C)CCN2C(=O)c1ccc2nc[nH]c2c1` [Example 191, (3H-Benzoimidazol-5-yl)-[(5R,9S)-4,5,6,7,8,9-hexahydro-2,10,12,12-trimethyl-5,9-methano-1H-imidazo[5,4-j][3]benzazocin-6-yl]-methanone] yielded an IC50 of 571 nM. `C[C@@H]1[C@H]2Cc3ccc(-c4ccn(C)c(=O)c4)cc3[C@]1(C)CCN2C(=O)c1ccc2nc[nH]c2c1` [Example 279, (3H-Benzoimidazol-5-yl)-[(2R,6R,11S)-6,11-dimethyl-8-(1-methyl-2-oxo-1,2-dihydro-pyridin-4-yl)-1,2,5,6-tetrahydro-4H-2,6-methano-benzo[d]azocin-3-yl]-methanone] gave an IC50 of 52 nM. With `CC1(C)[C@H]2Cc3ccccc3[C@]1(C)CCN2C(=O)c1ccc(N)c(F)c1` [Example 296, (4-Amino-3-fluoro-phenyl)-[(2R,6S)-6,11,11-trimethyl-1,2,5,6-tetrahydro-4H-2,6-methano-benzo[d]azocin-3-yl]-methanone] the IC50 was 32 nM. `COc1cc2c(cc1C)[C@]1(C)CCN(C(=O)c3ccc4nc[nH]c4c3)[C@H](C2)C1(C)C` (stereo in doubt) [Example 63, (3H-Benzoimidazol-5-yl)-[(2R,6S)-9-methoxy-6,8,11,11-tetramethyl-1,2,5,6-tetrahydro-4H-2,6-methano-benzo[d]azocin-3-yl]-methanone] gave an IC50 of 216 nM. `Cc1noc(C)c1C(=O)N1CC[C@@]2(C)c3cccc(O)c3C[C@@H]1C2(C)C` [Example 121] was tested, and the IC50 was 4120 nM. `CC1(C)[C@H]2Cc3c(O)cccc3[C@]1(C)CCN2C(=O)c1ccc(C(=O)N2CCCC2)cc1` [Example 133, [(2R,6S)-10-Hydroxy-6,11,11-trimethyl-1,2,5,6-tetrahydro-4H-2,6-methano-benzo[d]azocin-3-yl]-[4-(pyrrolidine-1-carbonyl)-phenyl]-methanone] was tested, and the IC50 was 941 nM. Work on `Cc1cnc(-c2nc3cc4c(cc3[nH]2)[C@]2(C)CCN(C(=O)c3ccc5nc[nH]c5c3)[C@H](C4)C2(C)C)cn1` [Example 277, (3H-Benzoimidazol-5-yl)-[(6R,10S)-5,6,7,8,9,10-hexahydro-10,12,12-trimethyl-2-(5-methyl-pyrazin-2-yl)-6,10-methano-imidazo[5,4-i][3]benzazocin-7-yl]-methanone] yielded an IC50 of 34 nM. With `CC1(C)[C@H]2Cc3c(O)cccc3[C@]1(C)CCN2C(=O)c1n[nH]c2c1CCCC2` [Example 219, [(2R,6S)-10-Hydroxy-6,11,11-trimethyl-1,2,5,6-tetrahydro-4H-2,6-methano-benzo[d]azocin-3-yl]-(4,5,6,7-tetrahydro-1H-indazol-3-yl)-methanone] the IC50 was 160 nM. `CCCN(C)C(=O)c1ccc(C(=O)N2CC[C@@]3(C)c4cccc(O)c4C[C@@H]2C3(C)C)cc1` [Example 167, 4-[(2R,6S)-10-Hydroxy-6,11,11-trimethyl-1,2,5,6-tetrahydro-4H-2,6-methano-benzo[d]azocine-3-carbonyl]-N-methyl-N-propyl-benzamide] showed an IC50 of 291 nM. `C[C@@H]1CN(C(=O)c2ccc3nc[nH]c3c2)[C@@H]2Cc3ccccc3[C@@]1(C)C2` (racemic) [Example 294, (3H-Benzoimidazol-5-yl)-(5,6-dimethyl-1,2,5,6-tetrahydro-4H-2,6-methano-benzo[d]azocin-3-yl)-methanone] showed an IC50 of 146 nM. With `CC1(C)[C@H]2Cc3ccccc3[C@]1(C)CCN2C(=O)c1ccc(N)nc1` [Example 304, (6-Amino-pyridin-3-yl)-[(2R,6S)-6,11,11-trimethyl-1,2,5,6-tetrahydro-4H-2,6-methano-benzo[d]azocin-3-yl)-methanone] the IC50 was 251 nM. `N#CC12CCN(C(=O)c3ccc4ncsc4c3)C(Cc3ccc(O)cc31)C2` (stereo not drawn) [Example 177, 3-(Benzothiazole-6-carbonyl)-8-hydroxy-2,3,4,5-tetrahydro-1H-2,6-methano-benzo[d]azocine-6-carbonitrile] gave an IC50 of 8910 nM. For `CC(O)c1cccc(C(=O)N2CC[C@@]3(C)c4ccccc4C[C@@H]2C3(C)C)c1` (stereo partly drawn) [Example 314, [3-(1-Hydroxy-ethyl)-phenyl]-[(2R,6S)-6,11,11-trimethyl-1,2,5,6-tetrahydro-4H-2,6-methano-benzo[d]azocin-3-yl]-methanone], the IC50 was 162 nM. `COc1cccc2c1C[C@H]1N(C(=O)c3ccoc3C)CC[C@]2(C)C1(C)C` [Example 104, [(2R,6S)-10-Methoxy-6,11,11-trimethyl-l,2,5,6-tetrahydro-4H-2,6-methano-benzo[d]azocin-3-yl]-(2-methyl-furan-3-yl)-methanone] gave an IC50 of 1390 nM. Compound `CC1(C)[C@H]2Cc3c(O)cccc3[C@]1(C)CCN2C(=O)c1ccccc1` [Example 1, [(2R,6S)-10-Hydroxy-6,11,11-trimethyl-1,2,5,6-tetrahydro-4H-2,6-methano-benzo[d]azocin-3-yl]-phenyl-methanone] has an IC50 of 285 nM. Work on `CNC(=O)c1ccc(C(=O)N2CC[C@@]3(C)c4cccc(O)c4C[C@@H]2C3(C)C)cc1` [Example 36, 4-[(2R,6S)-10-Hydroxy-6,11,11-trimethyl-1,2,5,6-tetrahydro-4H-2,6-methano-benzo[d]azocine-3-carbonyl]-N-methyl-benzamide] yielded an IC50 of 3660 nM. `CC1(C)[C@H]2Cc3ccccc3[C@]1(C)CCN2C(=O)c1ccc2cn[nH]c2c1` [Example 285, (1H-Indazol-6-yl)-[(2R,6S)-6,11,11-trimethyl-1,2,5,6-tetrahydro-4H-2,6-methano-benzo[d]azocin-3-yl]-methanone] gave an IC50 of 150 nM. With `COc1cc2c(cc1O)CC1N(C(=O)c3ccc4nc[nH]c4c3)CCC2(C)C1(C)C` (stereo not drawn) [Example 71, (3H-Benzoimidazol-5-yl)-(9-hydroxy-8-methoxy-6,11,11-trimethyl-1,2,5,6-tetrahydro-4H-2,6-methano-benzo[d]azocin-3-yl)-methanone] the IC50 was 47 nM. `CC1(C)[C@H]2Cc3ccccc3[C@]1(C)CCN2C(=O)c1ccc2nc[nH]c2c1` (racemic) [Example 82, (3H-Benzoimidazol-5-yl)-[(2R,6S)-6,11,11-trimethyl-1,2,5,6-tetrahydro-4H-2,6-methano-benzo[d]azocin-3-yl]-methanone] gave an IC50 of 56 nM. In the case of `C[C@@H]1[C@H]2Cc3ccc(-c4nnn[nH]4)cc3[C@]1(C)CCN2C(=O)c1ccc2nc[nH]c2c1` [Example 228, (2R,6R,11S)-(3H-Benzoimidazol-5-yl)-[6,11-dimethyl-8-(1H-tetrazol-5-yl)-1,2,5,6-tetrahydro-4H-2,6-methano-benzo[d]azocin-3-yl]-methanone], the IC50 is reported as 236 nM. `CC1(C)[C@H]2Cc3cc4oc([C@H]5CCCO5)nc4cc3[C@]1(C)CCN2C(=O)c1ccc2nc[nH]c2c1` [Example 337, (3H-Benzoimidazol-5-yl)-[(6R,10S)-5,6,7,8,9,10-hexahydro-10,12,12-trimethyl-2-[(R)-tetrahydrofuran-2-yl]-6,10-methano-oxazolo[4,5-i][3]benzazocin-7-yl]-methanone] gave an IC50 of 52 nM. `COC(=O)C12CCN(C(=O)c3ccc4ncsc4c3)C(Cc3ccc(O)cc31)C2` (stereo not drawn) [Example 94, 3-(Benzothiazole-6-carbonyl)-8-hydroxy-2,3,4,5-tetrahydro-1H-2,6-methano-benzo[d]azocine-6-carboxylic acid methyl ester] showed an IC50 of 6720 nM. `CC(C)(O)c1ccc(C(=O)N2CC[C@@]3(C)c4ccccc4C[C@@H]2C3(C)C)cc1` [Example 306, [4-(1-Hydroxy-1-methyl-ethyl)-phenyl]-[(2R,6S)-6,11,11-trimethyl-1,2,5,6-tetrahydro-4H-2,6-methano-benzo[d]azocin-3-yl]-methanone] was tested, and the IC50 was 978 nM. Compound `Cc1cnc(-c2nc3cc4c(cc3o2)C[C@H]2N(C(=O)c3ccc5nc[nH]c5c3)CC[C@]4(C)C2(C)C)cn1` [Example 313, (3H-Benzoimidazol-5-yl)-[(6R,10S)-5,6,7,8,9,10-hexahydro-10,12,12-trimethyl-2-(5-methyl-pyrazin-2-yl)-6,10-methano-oxazolo[4,5-i][3]benzazocin-7-yl]-methanone] has an IC50 of 61 nM. `CC12CCN(C(=O)c3ccc4nc[nH]c4c3)C(Cc3cccc(C#N)c31)C2(C)C` (stereo not drawn) [Example 316, 3-(1H-Benzoimidazole-5-carbonyl)-6,11,11-trimethyl-1,2,3,4,5,6-hexahydro-2,6-methano-benzo[d]azocine-7-carbonitrile] was tested, and the IC50 was 32 nM.

Same assay, conditions: 1 hour at 37° C., pH 6.0, NADPH 200 μM, cortisone 80 nM, inhibition relative to carbenoxolone signal, read-out: 11β-HSD IC50
`CC12CCCN(C(=O)c3ccc4nc[nH]c4c3)C(Cc3ccccc31)C2` (stereo not drawn) [Example 324, (3H-Benzoimidazol-5-yl)-(1-methyl-10-aza-tricyclo[7.4.1.0*2,7*]tetradeca-2,4,6-trien-10-yl)-methanone] showed an IC50 of 121 nM.
